Experimental data: patent US9242992B2, “Crystal form of tricyclic benzopyran compound and production method thereof” (NISSAN CHEMICAL INDUSTRIES, LTD., priority 2009, dated 2016)

Key:
Type in all cases: physicochemical
[1] = Thermostability, humidity stability and photostability tests (total impurities by HPLC); settings: for Total amount of impurities by HPLC, initial value: Test Example 1, before the stability tests
Description: The thermostability, humidity stability and photostability of the A-, B- and F-form crystals of Compound (1) were examined.
The conditions for each test were as follows.
Thermostability test: 60° C., humidity was not controlled, 2 weeks, in air-tight container
Humidity stability test: 25° C., 90% RH, 2 weeks, in opened container
Photostability test: 200 W/m^2·hr, 25° C., 60% RH, 57 hours, in opened container
(§1) In addition, the stability of the crystals was evaluated by the degree of increase of the total amount of impurities by HPLC analysis.

[2] = Acceleration test (total impurities by HPLC); settings: for Total amount of impurities by HPLC, measured value after test / Increase of impurities in acceleration test (in words): 40° C., 75% RH, 6 months, air-tight container; for Total amount of impurities by HPLC, initial value: Test Example 2, before the acceleration test
Description: The A-, B- and E-form crystals of Compound (1) were subjected to an acceleration test. The conditions for the test were as follows.
Acceleration test: 40° C., 75% RH, 6 months, in an air-tight container
as §1

[3] = Water adsorption analysis; settings: 25° C., sample 0.2 g, pre-treatment 60° C. 20 hours
Description: The A-, B- and E-form crystals of Compound (1) were evaluated by water adsorption analysis.
[Measurement conditions] sample amount: 0.2 g; pre-treatment: 60° C., 20 hours; temperature 25° C., Volumetric adsorption apparatus (trade name: BELSORP 18 manufactured by BEL Japan, Inc.) was used.

[4] = Solubility, Japanese Pharmacopoeia dissolution test in JP2 pH 6.8; settings: for Solubility: JP2, pH 6.8, 60 minutes, 10 mg in 500 mL, 37° C.
Description: The solubility and the specific surface area of the A-form, B-form, E-form and F-form crystals of Compound (1) were examined.
[Measurement conditions] JP2, pH 6.8 (3.40 g of potassium dihydrogen phosphate and 3.55 g of anhydrous disodium hydrogen phosphate is dissolved in water to obtain 1 liter of solution. The 1 volume of the solution is mixed with the 1 volume of water to obtain JP2, pH 6.8.), 60 minutes
according to the Japanese Pharmacopoeia fifteenth edition, dissolution test (Protocol of the dissolution test; sample amount: 10 mg, test solution: JP2, pH 6.8, 500 mL, sampling point: 5, 15, 30, 60 min, paddle rotational speed: […], bath temperature: 37° C.)

[5] = Specific surface area by BET method (nitrogen adsorption); settings: for Specific surface area: BET, adsorption temperature 77K, equilibrium time 300 seconds
Description: [Measurement conditions] adsorption temperature: 77K, adsorption equilibrium time: 300 seconds
[Measured value unit] square meter/gram
The measurement was performed by the BET method using the nitrogen adsorption in liquid nitrogen after a pre-treatment in refluxed liquid nitrogen.

[6] = High-temperature XRD measurement
Description: The A-form and B-form crystals of Compound (1) were subjected to the high-temperature XRD measurement.
As shown in FIG. 8 and FIG. 9, there was observed no change until 100° C. in the powder X-ray diffractogram of the A-form crystal and until 60° C. in the powder X-ray diffractogram of the B-form crystal.

Row | SMILES | Total amount of impurities by HPLC, initial value [1] [%] | Total amount of impurities by HPLC, measured value after test [2] [%] | Total amount of impurities by HPLC, initial value [2] [%] | Adsorption of water (in words) [3] | Solubility [4] [%] | Specific surface area [5] [square meter/gram] | Temperature until which no change was observed in the powder X-ray diffractogram [6] [°C] | Increase of impurities in acceleration test (in words) [2] | Increase of impurities under the conditions (in words) ([1]; thermostability, humidity stability and photostability tests) | Adsorption of water (in words) ([3]; listed as A-form) | Solubility in the JP2 solution (in words) ([4]; JP2, pH 6.8) | Specific surface area (in words) ([5]; BET method)
1 | Cc1cc(CO)nc2cc3c(cc12)OC(C)(C)[C@H](O)[C@H]3NCCc1ccccc1 [B-form crystal, (3R,4S)-7-hydroxymethyl-2,2,9-trimethyl-4-(phenethylamino)-3,4-dihydro-2H-pyrano[2,3-g]quinolin-3-ol] | 0.55 | 1.15 | 0.42 | the adsorption of water was observed, the adsorption was reversible | 27 | 0.3 | 60 | – | – | – | – | –
2 | Cc1cc(CO)nc2cc3c(cc12)OC(C)(C)[C@H](O)[C@H]3NCCc1ccccc1 [F-form crystal, (3R,4S)-7-hydroxymethyl-2,2,9-trimethyl-4-(phenethylamino)-3,4-dihydro-2H-pyrano[2,3-g]quinolin-3-ol] | 0.25 | – | – | – | 30 | – | – | – | – | – | – | –
3 | Cc1cc(CO)nc2cc3c(cc12)OC(C)(C)[C@H](O)[C@H]3NCCc1ccccc1 [E-form crystal, (3R,4S)-7-hydroxymethyl-2,2,9-trimethyl-4-(phenethylamino)-3,4-dihydro-2H-pyrano[2,3-g]quinolin-3-ol] | – | 0.64 | 0.64 | no adsorption of water | 23 | 0.3 | – | no increase of impurities | – | – | – | –
4 | Cc1cc(CO)nc2cc3c(cc12)OC(C)(C)[C@H](O)[C@H]3NCCc1ccccc1 [A-form crystal, (3R,4S)-7-hydroxymethyl-2,2,9-trimethyl-4-(phenethylamino)-3,4-dihydro-2H-pyrano[2,3-g]quinolin-3-ol] | 0.84 | 0.80 | 0.70 | less than that on E-form crystal | 36 | 0.7 | 100 | no increase of impurities | no increase of impurities | no adsorption of water | high solubility | high value
